Data published in patent publication US8697732B2, “Pyridine derivatives” (Actelion Pharmaceuticals Ltd., priority 2006, dated 2014).

Tests used:
[1] = molecular target: recombinant human S1P1 receptor (Homo sapiens, UniProt P21453); test: GTPγS assay to determine EC50 values; format: biochemical; conditions: 35S-GTPγS binding, membrane preparations of CHO cells expressing recombinant human S1P1 receptor
Protocol: GTPγS binding assays are performed in 96 well microtiter plates (Nunc, 442587) in a final volume of 200 μl, using membrane preparations of CHO cells expressing recombinant human S1P1 receptor. Assay conditions are 20 mM Hepes (Fluka, 54461), 100 mM NaCl (Fluka, 71378), 5 mM MgCl2 (Fluka, 63064), 0.1% BSA (Calbiochem, 126609), 1 μM GDP (Sigma, G-7127), 2.5% DMSO (Fluka, 41644), 50 pM ^35S-GTPγS (Amersham Biosciences, SJ1320). The pH is 7.4. Test compounds are dissolved and diluted in 100% DMSO and pre-incubated at room temperature for 30 min in 150 μl of the above assay buffer, in the absence of ^35S-GTPγS. After addition of 50 μl of ^35S-GTPγS, the assay is incubated for 1 h at rt. The assay is terminated by transfer of the reaction mixture to a Multiscreen plate (Millipore, MAHFC1H60) using a cell harvester from Packard Biosciences, and the plates are washed with ice-cold 10 mM Na2HPO4/NaH2PO4 (70%/30%), dried, sealed at the bottom and, after addition of 25 μl MicroScint20 (Packard Biosciences, order#6013621), sealed on the top. Membrane-bound ^35S-GTPγS is measured with a TopCount from Packard Biosciences.
EC50 is the concentration of agonist inducing 50% of the maximal specific ^35S-GTPγS binding. Specific binding is determined by subtracting non-specific binding from maximal binding. Maximal binding is the amount of cpm bound to the Multiscreen plate in the presence of 10 μM of S1P. Non-specific binding is the amount of binding in the absence of an agonist in the assay. […] The EC50 values were determined according to the method described above: […]

circulating lymphocytes = test: Assessment of in vivo efficacy: circulating lymphocytes after oral administration; conditions: 6 h after oral administration of 10 mg/kg to normotensive male Wistar rats, as compared to vehicle-only group
Protocol: The efficacy of the compounds of Formula (I) is assessed by measuring the circulating lymphocytes after oral administration of 3 to 30 mg/kg of a compound of Formula (I) to normotensive male Wistar rats. The animals are housed in climate-controlled conditions with a 12 h-light/dark cycle, and have free access to normal rat chow and drinking water. Blood is collected before and 3, 6 and 24 h after drug administration. Full blood is subjected to hematology using Advia Hematology system (Bayer Diagnostics, Zurich, Switzerland).
All data are presented as mean±SEM. Statistical analyses are performed by analysis of variance (ANOVA) using Statistica (StatSoft) and the Student-Newman-Keuls procedure for multiple comparisons. The null hypothesis is rejected when p<0.05.

Chain of recombinant human S1P1 receptor (P21453 whole entry): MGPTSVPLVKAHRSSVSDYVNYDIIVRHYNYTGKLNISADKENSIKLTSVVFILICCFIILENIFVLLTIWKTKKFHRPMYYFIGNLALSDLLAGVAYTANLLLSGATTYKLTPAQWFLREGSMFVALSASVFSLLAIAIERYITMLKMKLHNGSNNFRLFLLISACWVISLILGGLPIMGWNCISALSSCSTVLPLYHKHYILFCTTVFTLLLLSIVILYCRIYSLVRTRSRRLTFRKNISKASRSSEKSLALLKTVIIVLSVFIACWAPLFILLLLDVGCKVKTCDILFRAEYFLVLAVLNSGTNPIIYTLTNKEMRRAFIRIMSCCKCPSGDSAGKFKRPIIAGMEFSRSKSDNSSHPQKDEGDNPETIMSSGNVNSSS

EC50 [1] | Structure (SMILES) | Lymphocyte counts (circulating lymphocytes)
1.3 nM | CCc1cc(C=CC(=O)c2sc(C)c3c2CC2C3C2(C)C)cc(C)n1 [Example 1, 3-(2-Ethyl-6-methyl-pyridin-4-yl)-1-((1aS,5aR)-1,1,2-trimethyl-1,1a,5,5a-tetrahydro-3-thia-cyclopropa[a]pentalen-4-yl)-propenone] | 
4.6 nM | CCc1cc(CCC(=O)c2sc(CC)c3c2CCC(C)(C)C3)cc(C)n1 [Example 4, 1-(3-Ethyl-5,5-dimethyl-4,5,6,7-tetrahydro-benzo[c]thiophen-1-yl)-3-(2-ethyl-6-methyl-pyridin-4-yl)-propan-1-one] | 
 | CCc1cc(-c2nnc(-c3sc(C)c4c3C[C@@H]3[C@H]4C3(C)C)o2)cc(C)n1 [Example 5, 2-Ethyl-6-methyl-4-[5-((1aS,5aR)-1,1,2-trimethyl-1,1a,5,5a-tetrahydro-3-thia-cyclopropa[a]pentalen-4-yl)-[1,3,4]oxadiazol-2-yl]-pyridine] | −77%
3.4 nM | Cc1cc(-c2nnc(-c3sc(C)c4c3C[C@@H]3[C@H]4C3(C)C)o2)cc(C)n1 [Example 8, 2,6-Dimethyl-4-[5-((1aS,5aR)-1,1,2-trimethyl-1,1a,5,5a-tetrahydro-3-thia-cyclopropa[a]pentalen-4-yl)-[1,3,4]oxadiazol-2-yl]-pyridine] | 
3.7 nM | CCc1cc(-c2noc(-c3sc(C)c4c3CC3C4C3(C)C)n2)cc(C)n1 (centres unmarked) [Example 14, 2-Ethyl-6-methyl-4-[5-(1,1,2-trimethyl-1,1a,5,5a-tetrahydro-3-thia-cyclopropa[a]pentalen-4-yl)-[1,2,4]oxadiazol-3-yl]-pyridine] | 
